“Also recorded” adds a separate entry of the source. Where no end group is shown, it is not given here.
Key:
[1] = tested on: NMDAR-mediated EPSCs in VTA dopamine neurons; assay: NMDAR-mediated EPSCs, whole-cell voltage-clamp in VTA slices; format: cell-based, mice; details: for potentiation of NMDAR-mediated EPSCs: +40 mV
Protocol: VTA slices from 21-29 day old C57 mice (Charles River) were prepared as previously described (Ungless et al. (2001). Nature 411: 584-587). Briefly, mice were anesthetized with halothane and then decapitated. A block of tissue containing midbrain was sliced in the horizontal plane (230 μm) in ice-cold low Ca^2+ solution (containing in mM: 126 NaCl, 1.6 KCl, 1.2 NaH2PO4, 1.2 MgCl2, 0.625 CaCl2, 18 NaHCO3 and 11 glucose). Slices were transferred to a holding chamber containing artificial cerebrospinal fluid (ACSF, in mM: 126 NaCl, 1.6 KCl, 1.2 NaH2PO4, 1.2 MgCl2, 2.5 CaCl2, 18 NaHCO3 and 11 glucose) and equilibrated at 31-34° C. for at least 1 h. Picrotoxin (100 μM) was added to the ACSF for recording, to block GABAA receptor-mediated inhibitory postsynaptic potentials. All solutions were aerated with 95% O2/5% CO2, and perfused over the slice at a rate of 2.5 ml/min. Cells were visualized with an upright microscope using infrared differential interference contrast (IR-DIC) illumination and whole-cell voltage-clamp recordings were made with an Axopatch 1D amplifier (Axon Instruments). Electrodes (2-4 MΩ) contained in mM: 117 cesium methansulfonic acid, 20 HEPES, 0.4 EGTA, 2.8 NaCl, 5 TEA-Cl, 2.5 MgATP, 0.25 MgGTP, pH 7.2-7.4, 275-285 mOsm. Dopamine cells were identified by the presence of an Ih current. A bipolar stimulating electrode was placed 100-300 μm rostral to the recording electrode and was used to stimulate excitatory afferents at 0.1 Hz. Neurons were voltage-clamped at +40 mV. Coronal hippocampal slices were also prepared and maintained in a similar manner. Extracellular field potentials were recorded in the CA1 region and evoked by stimulating the stratum radiatum. All drugs were obtained from Sigma, except human/rat CRF (Tocris), Antisauvagine-30 (PolyPeptide) and CP-154,526 (a generous gift from Pfizer). CRF fragment (6-33), ovine CRF, Antisauvagine-30, CP-154,526, U-73122 and Urocortin were first dissolved in DMSO (final concentration 0.1%). EPSCs were filtered at 2 kHz, digitized at 5-10 kHz and stored using Igor Pro software (Wavemetrics). AMPAR-mediated EPSCs were recorded at −70 mV; NMDAR-mediated EPSCs were recorded at +40 mV and measured 20 msec after the stimulation artifact when the EPSC is primarily NMDAR-mediated (11,13). Statistical significance was assessed using ANOVA on 5 min bins of EPSCs, and post hoc Fisher's LSD where appropriate.
We measured excitatory postsynaptic currents (EPSCs) recorded in putative dopamine neurons in midbrain slices from mice. EPSCs were evoked while holding neurons in voltage-clamp at +40 mV; measurements were taken at a time point when the EPSC is purely NMDA-receptor-mediated (see Methods) (Bonci and Malenka (1999). J Neurosci. 19: 3723-3730; Ungless et al. (2001). Nature 411: 584-587). […] To facilitate our subsequent investigation of the effects of CRF, we therefore sought to identify a characteristic that might help us determine, a priori, to which group a particular neuron belongs. […] We noticed that, typically, neurons that responded to CRF had large Ih currents (FIG. 1B). […] Henceforth, all subsequent experiments were conducted on cells with an Ih greater than 100 pA.

[2] = tested on: field potentials in hippocampus CA1 (CRF-R1 mediated); assay: Extracellular field potentials in hippocampal slices (CA1); format: cell-based, mice
Text: A bipolar stimulating electrode was placed 100-300 μm rostral to the recording electrode and was used to stimulate excitatory afferents at 0.1 Hz.

NMDARs = details: derived from cell lines; Patneau and Mayer 1990; cited from earlier work
CRF-BP = molecular target: T1, CRF-BP (Homo sapiens, UniProt P24387); details: in words; cited from earlier work
T1 sequence (P24387 25-322): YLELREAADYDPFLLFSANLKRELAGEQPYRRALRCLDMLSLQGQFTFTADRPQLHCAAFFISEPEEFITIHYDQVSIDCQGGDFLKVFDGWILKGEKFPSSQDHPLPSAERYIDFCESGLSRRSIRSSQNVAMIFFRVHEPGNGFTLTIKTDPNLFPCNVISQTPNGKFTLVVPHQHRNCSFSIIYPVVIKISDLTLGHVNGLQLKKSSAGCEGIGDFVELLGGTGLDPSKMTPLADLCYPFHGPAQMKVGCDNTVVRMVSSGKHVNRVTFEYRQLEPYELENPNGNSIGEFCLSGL

cAMP in Ltk- cells = details: CRF 1 μM; Lovenberg et al. 1995; cited from earlier work
[3] = tested on: AMPAR-mediated EPSCs in VTA dopamine neurons; assay: AMPAR-mediated EPSCs, whole-cell voltage-clamp in VTA slices; format: cell-based, mice; details: CRF 1 μM; voltage-clamp at -70 mV; n=4
Protocol: VTA slices from 21-29 day old C57 mice (Charles River) were prepared as previously described (Ungless et al. (2001). Nature 411: 584-587). Briefly, mice were anesthetized with halothane and then decapitated. A block of tissue containing midbrain was sliced in the horizontal plane (230 μm) in ice-cold low Ca^2+ solution (containing in mM: 126 NaCl, 1.6 KCl, 1.2 NaH2PO4, 1.2 MgCl2, 0.625 CaCl2, 18 NaHCO3 and 11 glucose). Slices were transferred to a holding chamber containing artificial cerebrospinal fluid (ACSF, in mM: 126 NaCl, 1.6 KCl, 1.2 NaH2PO4, 1.2 MgCl2, 2.5 CaCl2, 18 NaHCO3 and 11 glucose) and equilibrated at 31-34° C. for at least 1 h. Picrotoxin (100 μM) was added to the ACSF for recording, to block GABAA receptor-mediated inhibitory postsynaptic potentials. All solutions were aerated with 95% O2/5% CO2, and perfused over the slice at a rate of 2.5 ml/min. […] Extracellular field potentials were recorded in the CA1 region and evoked by stimulating the stratum radiatum. […] AMPAR-mediated EPSCs were recorded at −70 mV; NMDAR-mediated EPSCs were recorded at +40 mV and measured 20 msec after the stimulation artifact when the EPSC is primarily NMDAR-mediated (11,13). Statistical significance was assessed using ANOVA on 5 min bins of EPSCs, and post hoc Fisher's LSD where appropriate. […]

CRF-R1 = molecular target: T2, CRF-R1 (Homo sapiens, UniProt P34998); details: in words; cited from earlier work
T2 sequence (P34998 24-415): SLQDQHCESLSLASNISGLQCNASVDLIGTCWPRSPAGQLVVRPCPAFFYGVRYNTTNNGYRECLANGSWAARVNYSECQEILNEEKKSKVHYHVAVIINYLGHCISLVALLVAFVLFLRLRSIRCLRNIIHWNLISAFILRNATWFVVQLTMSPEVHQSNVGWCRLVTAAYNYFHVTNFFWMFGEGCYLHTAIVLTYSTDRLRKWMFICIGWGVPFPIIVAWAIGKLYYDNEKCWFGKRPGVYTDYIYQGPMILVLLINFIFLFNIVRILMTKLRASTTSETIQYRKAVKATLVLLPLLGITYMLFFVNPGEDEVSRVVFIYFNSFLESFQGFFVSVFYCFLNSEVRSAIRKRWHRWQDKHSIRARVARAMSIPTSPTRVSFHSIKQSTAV

[4] = peptide 1 μM for 8 min, small Ih (non-responding) dopamine neurons
[5] = peptide bath applied 1 μM for 8 min, large Ih (CRF-responding) dopamine neurons

CCCCN(CC)c1nc(C)nc2c1c(C)cn2-c1c(C)cc(C)cc1C [CP-154,526]
block of CRF-induced potentiation of NMDAR-mediated EPSCs ([1]; CP-154,526 3 μM for 15 min, CRF 1 μM, n=6): failed to block; also recorded: does not block | hippocampal field potential vs. baseline with CRF plus antagonist ([2]; CRF 1 μM plus 3 μM CP-154,526, n=5, P>0.05): 82.9±6.9%

Nc1ncnc2c1ncn2[C@@H]1O[C@@H]2CO[P@@](O)(=S)O[C@H]2[C@H]1O [Rp-cAMPs]
block of CRF-induced potentiation of NMDAR-mediated EPSCs ([1]; Rp-cAMPs 100 μM in patch pipette, CRF 1 μM, n=4): still observed a significant potentiation; also recorded: is not blocked

COc1ccc2c(c1)CC[C@@H]1[C@@H]2CC[C@]2(C)[C@@H](NCCCCCCN3C(=O)C=CC3=O)CC[C@@H]12 [U-73122]
block of CRF-induced potentiation of NMDAR-mediated EPSCs ([1]; U-73122 1 μM for 10 min before and during CRF application, n=5): no potentiation | block of CRF-induced potentiation of NMDAR-mediated EPSCs ([1]; U-73122 1 μM for 10 min before and during CRF application, n=5, listed as U73122): is blocked

N[C@@H](CCC(=O)O)C(=O)O [glutamate]
EC50 (NMDARs): ~1000 nM

Antisauvagine-30
NMDAR-mediated EPSC size vs. baseline with CRF in presence of antagonist ([1]; Antisauvagine-30 30 nM, CRF 1 μM, 15 mins after CRF onset, n=3, P>0.05): 113.9±17.7% | block of CRF-induced potentiation of NMDAR-mediated EPSCs ([1]; Antisauvagine-30 1M for 15 min (so in the source), CRF 1 μM, n=5): inhibited; also recorded: blocks

CRF fragment (6-33): CRF fragment that competes with CRF at the CRF-BP; CRF-BP inhibitor (ISLDLTFHLLREVLEMARAEQLAQQAHS; Corticoliberin; UniProt P06850 159-186, looked up, fragment)
block of CRF-induced potentiation of NMDAR-mediated EPSCs ([1]; CRF fragment (6-33) 1 μM for 10 min co-applied with CRF, n=5): did not potentiate; also recorded: inhibits | affinity for CRF-BP (CRF-BP): high-affinity binding

CRF: Corticotrophin-releasing factor, a 41 amino acid peptide; human/rat CRF (Tocris) (SEEPPISLDLTFHLLREVLEMARAEQLAQQAHSNRKLMEII)
activation of cAMP (cAMP in Ltk- cells): maximal activation | NMDAR-mediated EPSC size vs. baseline ([1]; CRF 100 nM, 25 mins after CRF onset, n=6, P<0.05): 128.01±15.7% | potentiation of NMDAR-mediated EPSCs [1, 4]: did not observe any effect; also recorded: do not exhibit CRF-induced potentiation | potentiation of NMDAR-mediated EPSCs [1, 5]: large, slowly developing, and transient potentiation; also recorded: exhibit CRF-induced potentiation | potentiation of AMPAR-mediated EPSCs [3]: did not potentiate; also recorded: does not potentiate | hippocampal field potential vs. baseline ([2]; CRF 1 μM, 15 mins after CRF onset, n=4, P<0.05): 143.0±7.7%

Urocortin II: CRF-like peptide binding selectively to CRF-R2 (IVLSLDVPIGLLQILLEQARARAAREQATTNARILARVGHC; ends and bridges not checked; UniProt Q96RP3 72-112, looked up)
potentiation of NMDAR-mediated EPSCs [1, 5]: no potentiation; also recorded: does not potentiate | affinity for CRF-R1 (CRF-R1): low affinity | affinity for CRF-BP (CRF-BP): low affinity

Urocortin: CRF-like peptide, possible endogenous CRF-R2 ligand, also binds CRF-BP (DNPSLSIDLTFHLLRTLLELARTQSQRERAEQNRIIFDSV; ends and bridges not checked; UniProt P55089 83-122, looked up)
potentiation of NMDAR-mediated EPSCs [1, 4]: not | potentiation of NMDAR-mediated EPSCs [1, 5]: potentiation; also recorded: potentiates | affinity for CRF-R1 (CRF-R1): slightly lower affinity than CRF-R2 | affinity for CRF-BP (CRF-BP): higher affinity than CRF

ovine CRF: differs from human/rat CRF by 7 amino acids; binds CRF-R2, much lower affinity for CRF-BP
potentiation of NMDAR-mediated EPSCs [1, 5]: no potentiation | potentiation of NMDAR-mediated EPSCs ([1]; peptide bath applied 1 μM for 8 min, large Ih (CRF-responding) dopamine neurons, listed as bovine CRF): does not induce potentiation | affinity for CRF-BP (CRF-BP): much lower affinity
